In PMC6199744, “Development of Chemical Proteomics for the Folateome and Analysis of the Kinetoplastid Folateome” (ACS Infectious Diseases, 2018):

System: L. major lysate proteins
Assay: Multitargeted bead mixture chemoproteomics, single concentration competition, proteome-wide
Assay type: binding
Conditions: for fold change: vehicle control = 1

`Nc1nc2c(c(=O)[nH]1)N(C=O)C(CNc1ccc(C(=O)N[C@@H](CCC(=O)O)C(=O)O)cc1)CN2` (stereo partly drawn) [LEU, leucovorin] was tested, and the “fold change vs vehicle control” value (protein LMJF.15.0690 HY[…], CONSERVED) was 1.14, the fold change (protein LMJF.15.1010 GLUTAMATE DEHYDROGENASE) was 0.98 and the fold change (protein LMJF.15.1190 HYPOTHETICAL PROTEIN, CONSERVED (cyclic nucleotide-binding domain containing protein, putative)) was 0.96. The “fold change vs vehicle control” value (protein LMJF.16.0520 HYPOTHETICAL PROTEIN, CONSERVED) was 1.1, the “fold change vs vehicle control” value (protein LMJF.16.0540 ASPARTATE CARBAMOYLTRANSFERASE, PUTATIVE) was 0.98 and the “fold change relative to vehicle control” value (protein LMJF.16.0760, TRANSALDOLASE, PUTATIVE) was 1.22. For the same compound, the “fold change vs vehicle control” value (protein LMJF.16.0940 DYNEIN LIGHT CHAIN, PUTATIVE) was 1.06, the “fold change relative to vehicle control” value (protein LMJF.16.1180, COATOMER DELTA SUBUNIT-LIKE PROTEIN) was 1.21 and the “fold change relative to vehicle control” value (protein LMJF.16.1320, CYTOCHROME C, PUTATIVE) was 2.28. For the same compound, the “fold change relative to vehicle control” value (protein LMJF.16.1420, HY[…], CONSERVED) was 1.01, the “fold change relative to vehicle control” value (protein LMJF.17.0081, […] 1-ALPHA) was 1.09 and the “fold change relative to vehicle control” value (protein LMJF.18.0270, GLYCOGEN SYNTHASE KINASE, PUTATIVE) was 0.57. The fold change (protein LMJF.18.0580 P[…]-COA HYDRATASE, PUTATIVE) was 1.02, the “fold change relative to vehicle control” value (protein LMJF.18.0680, CITRATE SYNTHASE, PUTATIVE) was 1.15 and the “fold change vs vehicle control” value (protein LMJF.18.1010 DYNEIN LIGHT CHAIN 2B, CYTOPLASMIC, PUTATIVE) was 0.99. The “fold change vs vehicle control” value (protein LMJF.18.1210 PROLYL-TRNA SYNTHETASE, PUTATIVE,BI[…]-TRNA SYNTHETASE, PUTATIVE) was 1.38, the “fold change vs vehicle control” value (protein LMJF.18.1370 HEAT SHOCK PROTEIN, PUTATIVE) was 0.99 and the fold change (protein LMJF.19.0200 ADP,ATP CARRIER PROTEIN 1, MIT[…], PUTATIVE) was 1.01. The “fold change vs vehicle control” value (protein LMJF.19.1120 PROTEASOME REGULATORY NON-ATP-ASE SUBUNIT, PUTATIVE) was 0.93, the “fold change vs vehicle control” value (protein LMJF.19.1160 HYPOTHETICAL PROTEIN, CONSERVED) was 0.87 and the “fold change vs vehicle control” value (protein LMJF.19.1560 INOSINE-5'-MONOPHOSPHATE DEHYDROGENASE) was 1.06. The “fold change relative to vehicle control” value (protein LMJF.19.1620, POTASSIUM VOLTAGE-GATED CHANNEL, PUTATIVE) was 1.08, the “fold change vs vehicle control” value (protein LMJF.20.1280 SMALL MYRISTOYLATED PROTEIN 4, PUTATIVE) was 0.97 and the fold change (protein LMJF.21.0810 METHIONYL-TRNA SYNTHETASE, PUTATIVE) was 1.03. For the same compound, the fold change (protein LMJF.21.1450 ARGININE N-METHYLTRANSFERASE, TYPE II, PUTATIVE) was 1.01, the “fold change vs vehicle control” value (protein LMJF.21.1830 […] 5 SUBUNIT, PUTATIVE,20S […] ALPHA 5, (PUTATIVE)) was 1.06 and the fold change (protein LMJF.22.0230 AMINO ACID PERMEASE, PUTATIVE) was 0.86. The “fold change vs vehicle control” value (protein LMJF.22.0570 PROTEASOME REGULATORY ATPASE SUBUNIT 1, PUTATIVE) was 0.98, the “fold change vs vehicle control” value (protein LMJF.22.0730 HY[…], CONSERVED) was 1.05 and the fold change (protein LMJF.22.0770 NADH-CYTOCHROME B5 REDUCTASE, PUTATIVE) was 1.02. For the same compound, the “fold change relative to vehicle control” value (protein LMJF.23.0020, HY[…], CONSERVED) was 1.09, the “fold change relative to vehicle control” value (protein LMJF.23.0040, PEROXIDOXIN) was 1.41 and the “fold change relative to vehicle control” value (protein LMJF.23.0080, HY[…], CONSERVED) was 1.07. For the same compound, the fold change (protein LMJF.23.0210 ATP-BINDING CASSETTE PROTEIN SUBFAMILY C, MEMBER 1, PUTATIVE) was 0.88, the fold change (protein LMJF.23.0370 CYTOCHROME C OXIDASE SUBUNIT 10, PUTATIVE) was 0.88 and the “fold change relative to vehicle control” value (protein LMJF.23.0540, ACETYL-COA SYNTHETASE, PUTATIVE) was 1.24. The “fold change vs vehicle control” value (protein LMJF.23.0560 KINESIN, PUTATIVE) was 1.03, the “fold change vs vehicle control” value (protein LMJF.23.1410 HY[…], CONSERVED) was 1.01 and the “fold change relative to vehicle control” value (protein LMJF.24.0070, HYPOTHETICAL PROTEIN, CONSERVED) was 0.98. The fold change (protein LMJF.24.0140 ANKYRIN/TPR REPEAT PROTEIN) was 0.96, the fold change (protein LMJF.24.0400 HY[…], CONSERVED (TPR repeat, putative)) was 1.02 and the “fold change relative to vehicle control” value (protein LMJF.24.1510, IGE-DEPENDENT HISTAMINE-RELEASING FACTOR, PUTATIVE) was 1.54. For the same compound, the “fold change relative to vehicle control” value (protein LMJF.24.1630, SUCCINATE DEHYDROGENASE FLAVOPROTEIN, PUTATIVE) was 1.06, the “fold change relative to vehicle control” value (protein LMJF.24.2060, TRANSKETOLASE) was 0.92 and the “fold change relative to vehicle control” value (protein LMJF.25.0010, BETA […] TRANSFERASE) was 1.41. The “fold change relative to vehicle control” value (protein LMJF.25.0910, CYCLOPHILIN A) was 2.65, the “fold change vs vehicle control” value (protein LMJF.25.1130 […] OXIDASE VII, PUTATIVE) was 1.08 and the “fold change relative to vehicle control” value (protein LMJF.25.1180, ATPASE BETA SUBUNIT, PUTATIVE) was 1.04. For the same compound, the “fold change vs vehicle control” value (protein LMJF.25.1610 HY[…], CONSERVED) was 1.03, the “fold change vs vehicle control” value (protein LMJF.25.1620 HYPOTHETICAL PROTEIN, CONSERVED) was 0.97 and the fold change (protein LMJF.25.2340 SERINE/THREONINE-PROTEIN KINASE, PUTATIVE,PROTEIN KINASE, PUTATIVE) was 0.76. The “fold change relative to vehicle control” value (protein LMJF.26.0630, HY[…], CONSERVED) was 1.23, the “fold change vs vehicle control” value (protein LMJF.26.1240 HEAT SHOCK PROTEIN 70-RELATED PROTEIN) was 1.1 and the fold change (protein LMJF.26.1710 CYTOCHROME C OXIDASE SUBUNIT V, PUTATIVE) was 0.98. For the same compound, the “fold change vs vehicle control” value (protein LMJF.26.2480 CDP-DIACYLGLYCEROL--INOSITOL 3-PHOSPHATIDYLTRANSFERASE, PUTATIVE) was 0.94, the “fold change vs vehicle control” value (protein LMJF.26.2560 HYPOTHETICAL PROTEIN, CONSERVED) was 0.91 and the “fold change vs vehicle control” value (protein LMJF.27.0190 […] 7 SUBUNIT, PUTATIVE) was 1.06. The fold change (protein LMJF.27.0650 HYPOTHETICAL PROTEIN, CONSERVED) was 0.98, the fold change (protein LMJF.27.0700 HYPOTHETICAL PROTEIN, CONSERVED) was 0.69 and the “fold change vs vehicle control” value (protein LMJF.27.0760 GTP-binding protein homologue) was 1.15. For the same compound, the “fold change vs vehicle control” value (protein LMJF.27.1060 CYSTEINE DESULFURASE, PUTATIVE) was 1.03, the “fold change vs vehicle control” value (protein LMJF.27.1110 MITOCHONDRIAL RNA BINDING PROTEIN 1,GBP21, MRP1) was 0.96 and the fold change (protein LMJF.27.1250 HYPOTHETICAL PROTEIN, CONSERVED (Serine-threonine kinase receptor-associated protein, putative)) was 0.88. The “fold change relative to vehicle control” value (protein LMJF.27.1390, 60S ACIDIC RIBOSOMAL SUBUNIT PROTEIN, PUTATIVE) was 1.11, the fold change (protein LMJF.27.1460 PROTEASOME REGULATORY NON-ATP-ASE SUBUNIT 3, PUTATIVE) was 0.97 and the “fold change vs vehicle control” value (protein LMJF.28.0110 […] 3 SUBUNIT, PUTATIVE) was 1.08.
